According to BindingDB's records for patent US10485800 (The University of Rochester, 2019):

Target: Mitogen-activated protein kinase kinase kinase 11 (Homo sapiens, UniProt Q16584)
Assay: Radiometric Filter Plate MLK3 Assay
Protocol: 200 ng (130 nM) MLK3 (Dundee, DU8313) was incubated with 1 μM inactive MKK7b (Dundee, DU703) in the presence of 2 μM cold ATP (Km) and 0.5 μCi/assay 33P ATP and appropriate concentrations of compounds. After a twenty minute incubation, the reactions were washed through filter plates and read on a scintillation counter.

Chain of Mitogen-activated protein kinase kinase kinase 11 (Q16584 whole entry): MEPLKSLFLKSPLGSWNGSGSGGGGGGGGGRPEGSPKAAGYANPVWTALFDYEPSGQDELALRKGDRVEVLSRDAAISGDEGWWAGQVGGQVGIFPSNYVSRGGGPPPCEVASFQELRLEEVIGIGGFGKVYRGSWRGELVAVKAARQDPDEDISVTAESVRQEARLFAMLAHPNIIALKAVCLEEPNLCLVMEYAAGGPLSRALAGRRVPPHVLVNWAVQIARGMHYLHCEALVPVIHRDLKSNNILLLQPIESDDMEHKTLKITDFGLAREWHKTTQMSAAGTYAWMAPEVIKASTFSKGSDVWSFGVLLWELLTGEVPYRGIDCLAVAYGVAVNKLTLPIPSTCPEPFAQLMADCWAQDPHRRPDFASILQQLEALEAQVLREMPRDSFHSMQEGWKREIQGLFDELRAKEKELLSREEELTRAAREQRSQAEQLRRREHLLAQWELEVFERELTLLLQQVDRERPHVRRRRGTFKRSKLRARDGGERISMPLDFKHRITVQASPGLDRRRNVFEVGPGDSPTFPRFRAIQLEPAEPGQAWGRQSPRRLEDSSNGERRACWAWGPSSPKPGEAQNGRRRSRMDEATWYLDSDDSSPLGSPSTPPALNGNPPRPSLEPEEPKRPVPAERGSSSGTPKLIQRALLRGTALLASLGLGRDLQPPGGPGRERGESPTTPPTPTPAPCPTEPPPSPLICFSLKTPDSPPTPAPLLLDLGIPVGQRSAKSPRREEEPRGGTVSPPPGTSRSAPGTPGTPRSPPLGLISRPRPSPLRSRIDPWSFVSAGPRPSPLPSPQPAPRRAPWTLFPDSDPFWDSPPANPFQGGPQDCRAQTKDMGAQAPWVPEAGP

CC(=O)N1CCN(C(=O)c2ccc(-c3cnc4[nH]cc(-c5ccc(C(N)=O)cc5)c4c3)cc2)CC1 [US10485800, Example 150]
IC50: in the range around 550 nM
